Reference: US11097009B2, “CTB-PI polyamide conjugate for activating expression of specific gene” (KYOTO UNIVERSITY, priority 2015, dated 2021)

Tests used:
[1] = system: Human dermal fibroblasts (HDFs); experiment: Microarray analysis of genome-wide gene expression; type: cell-based; conditions: 1 μM effector, 48 hours, vs 0.5% DMSO
[2] = system: HDAC (nucleus extracts of HeLa cells); experiment: HDAC inhibitory activity evaluation (Color de Lys Substrate Deacetylation); type: biochemical; conditions: 0.2 mM substrate, 37° C., 30 minutes, absorption at 405 nm
Procedure: Trichostatin A (TSA), SAHA, and CTB were evaluated for their inhibitory activity against Color de Lys™ Substrate Deacetylation using nucleus extracts of HeLa cells. The nucleus extracts of HeLa cells were incubated with 0.2 mM of a substrate at 37° C. After 30 minutes, the reaction was terminated. Then, absorption at 405 nm was measured using Color de Lys™ Developer and thereby evaluated as HDAC inhibitory activity. The strong HDAC inhibitor trichostatin A (TSA) was compared with SAHA and CTB in terms of HDAC inhibitory activity.

SMILES | gene groups whose expression is activated (microarray clustering analysis) [1] | HDAC inhibitory activity [2]
CCOc1ccccc1C(=O)Nc1ccc(Cl)c(C(F)(F)F)c1 [CTB, N-(4-chloro-3-(trifluoromethyl)phenyl)-2-ethoxybenzamide] | activates the expression of a connective tissue disorder-related gene group | lack HDAC inhibitory activity
O=C(CCCCCCC(=O)Nc1ccccc1)NO [SAHA, suberoylanilide hydroxamic acid] | activates the expression of cancer- and cardiovascular disease-related gene groups | –
